Data reported in patent US11458189B2, “Cytoprotective drugs” (BALMES TRANSPLANTATION, priority 2017, dated 2022).
Starred links: 1 amine or outer side, 2 acyl side, 3 side chain; linkers in the order of their positions; H or OH if unused. Positions of bridges follow the written chain, without caps; N, C: chain ends. Non-standard residues stand in square brackets, D forms with d. Residues, ends and D or L forms follow the SMILES beside them. *: point of attachment. hTyr(3S-OH,4S-OH,3'-OSO3H) = N[C@H](C(=O)O)[C@H](O)[C@@H](O)c1ccc(O)c(OS(=O)(=O)O)c1; Orn(4R-OH,5R-OH) = O=C([C@H](C[C@@H](O)[C@@H](O)N[*:3])N[*:1])[*:2]; Pro(3S-OH,4S-Me) = C[C@H]1CN[C@H](C(=O)O)[C@H]1O; X1 = CCCCCOc1ccc(-c2cc(-c3ccc(C(=O)*)cc3)no2)cc1; Gln(3R-OH) = NC(=O)C[C@@H](O)[C@H](N)C(=O)O; Hyp = O=C(O)[C@@H]1C[C@@H](O)CN1

System: Rat Primary Kidney Glomerular Endothelial cells
Assay: Oxygen and glucose deprivation followed by replenishment, cell survival (calcein AM), rat glomerular endothelial cells;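 on Survival rate (%): 100% is hypoxia control with glucose and 0% is untreated OGD control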
Assay type: cell-based
Method: Anidulafungin and micafungin were tested on Human Renal Glomerular Endothelial Cells (HRGEC, Innoprot P10665), on Human Renal Proximal Tubular Epithelial Cells (HRPTEpiC, Innoprot P10662), on Human Astrocytes (HA, caltag SC-1800), on Human Cardiac Microvascular Endothelial Cells (HCMEC, Caltag SC-6000), on Human Hepatic Sinusoidal Endothelial Cells (HHSEC, Caltag SC-5000), on Rat Primary Kidney Glomerular Endothelial cells (Cellbiologics, RN-6014G) and on Bovine Brain Microvascular Endothelial Cells (BBMEC, Caltag SC-B100).
In a first phase, these isolated, purified and cryopreserved cells are thawed and multiplied according to the supplier's recommendations in T75 or T175 flasks pre-coated with 2 μg of fibronectin/[…] (CORNING) for HRGEC, HCMEC, HHSEC and BBMEC, or 2 μg poly-L-lysin/cm^2 (Caltag SC-0403) for HRPTEpiC and HA, or 15 mL/flask 175 cm^2 gelatin-based solution (Cellbiologics) in the presence of endothelial cell supplemented growth medium ECM (P60104, INNOPROT, Caltag, SC-1001) for HRGEC, HCMEC, HHSEC, RPKGEC or BBMEC, or astrocyte cell supplemented growth medium AM (Caltag SC-1801) for HA or epithelial cell supplemented growth medium EpiCM (P60106, INNOPROT) for HRPTEpiC, at 37° C. under 5% CO2 and saturated humidity until their confluency. They are then harvested by trypsinization according to the method described by the supplier for exactly 5 minutes and then reseeded in new flasks a maximum of three times.
To carry out the oxygen and glucose deprivation test followed by their replenishment, the cells will be seeded in 96-well black plates with transparent flat bottom (GREINER). Once a sufficient number of cells has been obtained to allow seeding of 2000 to 15000 cells per well of 96-well plates depending on the cell type, the cells are seeded in these 96-well plates previously coated with an extracellular matrix as listed above for the flasks. The cells are cultured for 5 to 8 days according to the cell type, in the presence of the same growth medium as in the flask as described above except for HRGEC and HRPTEpiC for which DMEM (DUTSCHER) with 1 g/L of supplemented glucose is used, at 37° C. under 5% CO2 and saturated humidity to obtain confluency.
On the first day of oxygen and glucose deprivation, (5th, 6th, 7th or 8th day of culture), the culture conditions are drastically changed. The medium of all plates is removed and replaced by DMEM (DUTSCHER) medium without glucose and supplemented only with 1% penicillin-streptomycin (DUTSCHER). Anidulafungin or micafungin dissolved in dimethyl sulfoxide (DMSO) is then added to each well at the desired concentration, resulting in a maximum of 1% DMSO, and the plates are placed under hypoxia at <1% 02 and 5% CO2 at 37° C. for 24 hours of culture. Each compound was tested in a concentration range.
After 24 hours, the growth medium is changed and replaced by a richer medium, DMEM (DUTSCHER) at 1 g/L glucose and 2% FBS (INNOPROT) and 1% penicillin-streptomycin (DUTSCHER). These media will have been pre-equilibrated at 37° C. in advance. The cells are then returned to culture at 37° C. under 20% 02 and 5% CO2 for 22h.
After 22 hours of reoxygenation, the potential protective effect of anidulafungin or micafungin is measured by a cell viability test using calcein AM (CORNING), which is a dye substrate. The calcein AM can easily cross the cell membrane of the viable cells. The AM ester groups mask the part of the molecule that chelates calcium. Once inside the cells, the (non-fluorescent) calcein AM is hydrolyzed to (fluorescent) calcein by endogenous esterases. The resulting calcein molecule binds to calcium inside the cell and remains trapped inside the cell. These molecules emit strong green fluorescence when subjected to […] of a particular wavelength (495 nm). Since dead cells lack esterase activity, only living cells are labelled.
This cell viability test is performed in two steps. […]

CCCCCOc1ccc(-c2cc(-c3ccc(C(=O)N[C@H]4C[C@@H](O)[C@@H](O)NC(=O)[C@@H]5[C@@H](O)[C@@H](C)CN5C(=O)[C@H]([C@H](O)CC(N)=O)NC(=O)[C@H]([C@H](O)[C@@H](O)c5ccc(O)c(OS(=O)(=O)O)c5)NC(=O)[C@@H]5C[C@@H](O)CN5C(=O)[C@H]([C@@H](C)O)NC4=O)cc3)no2)cc1 [Micafungin, {5-[(1S,2S)-2-[(3S,6S,9S,11R,15S,18S,20R,21R,24S,25S,26S)-3-[(1R)-2-carbamoyl-1-hydroxyethyl]-11,20,21,25-tetrahydroxy-15-[(1R)-1-hydroxyethyl]-26-methyl-2,5,8,14,17,23-hexaoxo-18-[(4-{5-[4-(pentyloxy)phenyl]-1,2-oxazol-3-yl}benzene)amido]-1,4,7,13,16,22-hexaazatricyclo[22.3.0.0]heptacosan-6-yl]-1,2-dihydroxyethyl]-2-hydroxyphenyl}oxidanesulfonic acid] (X1-[Orn(4R-OH,5R-OH)]T[Hyp][hTyr(3S-OH,4S-OH,3'-OSO3H)][Gln(3R-OH)][Pro(3S-OH,4S-Me)]; lactam 1-C)
Globalfluo assay 1 ([Micafungin] log μM 1.176091): 17307060 arbitrary units
Globalfluo assay 2 ([Micafungin] log μM 1.176091): 19173810 arbitrary units
Globalfluo assay 3 ([Micafungin] log μM 1.176091): 18057880 arbitrary units
Mean globalfluo ([Micafungin] log μM 1.176091): 18179583 arbitrary units
Survival rate (%) ([Micafungin] log μM 1.176091): 57%
Globalfluo assay 1 ([Micafungin] log μM 1.30103): 21761030 arbitrary units
Globalfluo assay 2 ([Micafungin] log μM 1.30103): 21216730 arbitrary units
Globalfluo assay 3 ([Micafungin] log μM 1.30103): 18246850 arbitrary units
Mean globalfluo ([Micafungin] log μM 1.30103): 20408203 arbitrary units
Survival rate (%) ([Micafungin] log μM 1.30103): 66%
Globalfluo assay 1 ([Micafungin] log μM 1.477121): 23916400 arbitrary units
Globalfluo assay 2 ([Micafungin] log μM 1.477121): 22885210 arbitrary units
Globalfluo assay 3 ([Micafungin] log μM 1.477121): 21104460 arbitrary units
Mean globalfluo ([Micafungin] log μM 1.477121): 22635357 arbitrary units
Survival rate (%) ([Micafungin] log μM 1.477121): 75%
Globalfluo assay 1 ([Micafungin] log μM 1.60206): 21279700 arbitrary units
Globalfluo assay 2 ([Micafungin] log μM 1.60206): 21255650 arbitrary units
Globalfluo assay 3 ([Micafungin] log μM 1.60206): 20543100 arbitrary units
Mean globalfluo ([Micafungin] log μM 1.60206): 21026150 arbitrary units
Survival rate (%) ([Micafungin] log μM 1.60206): 69%
Globalfluo assay 1 ([Micafungin] log μM 1.778151): 22384980 arbitrary units
Globalfluo assay 2 ([Micafungin] log μM 1.778151): 24586670 arbitrary units
Globalfluo assay 3 ([Micafungin] log μM 1.778151): 22823930 arbitrary units
Mean globalfluo ([Micafungin] log μM 1.778151): 23265193 arbitrary units
Survival rate (%) ([Micafungin] log μM 1.778151): 78%
Globalfluo assay 1 ([Micafungin] log μM 1.90309): 25482590 arbitrary units
Globalfluo assay 2 ([Micafungin] log μM 1.90309): 16667370 arbitrary units
Globalfluo assay 3 ([Micafungin] log μM 1.90309): 22222960 arbitrary units
Mean globalfluo ([Micafungin] log μM 1.90309): 21457640 arbitrary units
Survival rate (%) ([Micafungin] log μM 1.90309): 71%
Globalfluo assay 1 ([Micafungin] log μM 2): 23318050 arbitrary units
Globalfluo assay 2 ([Micafungin] log μM 2): 20442770 arbitrary units
Globalfluo assay 3 ([Micafungin] log μM 2): 22906760 arbitrary units
Mean globalfluo ([Micafungin] log μM 2): 22222527 arbitrary units
Survival rate (%) ([Micafungin] log μM 2): 74%
Globalfluo assay 1 ([Micafungin] log μM 2.176091): 20166170 arbitrary units
Globalfluo assay 2 ([Micafungin] log μM 2.176091): 24333680 arbitrary units
Globalfluo assay 3 ([Micafungin] log μM 2.176091): 26066530 arbitrary units
Mean globalfluo ([Micafungin] log μM 2.176091): 23522127 arbitrary units
Survival rate (%) ([Micafungin] log μM 2.176091): 79%
Globalfluo assay 1 ([Micafungin] log μM −0.154902): 3831476 arbitrary units
Globalfluo assay 2 ([Micafungin] log μM −0.154902): 4395798 arbitrary units
Globalfluo assay 3 ([Micafungin] log μM −0.154902): 3538568 arbitrary units
Mean globalfluo ([Micafungin] log μM −0.154902): 3921947 arbitrary units
Survival rate (%) ([Micafungin] log μM −0.154902): 0%
Globalfluo assay 1 ([Micafungin] log μM −0.30103): 4962690 arbitrary units
Globalfluo assay 2 ([Micafungin] log μM −0.30103): 4263110 arbitrary units
Globalfluo assay 3 ([Micafungin] log μM −0.30103): 4133198 arbitrary units
Mean globalfluo ([Micafungin] log μM −0.30103): 4452999 arbitrary units
Survival rate (%) ([Micafungin] log μM −0.30103): 2%
Globalfluo assay 1 ([Micafungin] log μM −0.5228788): 4164368 arbitrary units
Globalfluo assay 2 ([Micafungin] log μM −0.5228788): 5246152 arbitrary units
Globalfluo assay 3 ([Micafungin] log μM −0.5228788): 3621246 arbitrary units
Mean globalfluo ([Micafungin] log μM −0.5228788): 4343922 arbitrary units
Survival rate (%) ([Micafungin] log μM −0.5228788): 2%
Globalfluo assay 1 ([Micafungin] log μM −1): 4086038 arbitrary units
Globalfluo assay 2 ([Micafungin] log μM −1): 5779074 arbitrary units
Globalfluo assay 3 ([Micafungin] log μM −1): 4555233 arbitrary units
Mean globalfluo ([Micafungin] log μM −1): 4806782 arbitrary units
Survival rate (%) ([Micafungin] log μM −1): 4%
Globalfluo assay 1 ([Micafungin] log μM −2): 4295861 arbitrary units
Globalfluo assay 2 ([Micafungin] log μM −2): 4126418 arbitrary units
Globalfluo assay 3 ([Micafungin] log μM −2): 4707699 arbitrary units
Mean globalfluo ([Micafungin] log μM −2): 4376659 arbitrary units
Survival rate (%) ([Micafungin] log μM −2): 2%
Globalfluo assay 1 ([Micafungin] log μM −3): 4397869 arbitrary units
Globalfluo assay 2 ([Micafungin] log μM −3): 4804046 arbitrary units
Globalfluo assay 3 ([Micafungin] log μM −3): 3922702 arbitrary units
Mean globalfluo ([Micafungin] log μM −3): 4374872 arbitrary units
Survival rate (%) ([Micafungin] log μM −3): 2%
